Data as given in patent US11992473B2, “Compositions and methods for diagnosis and treatment of conditions related to the quality of aging and longevity” (Epitracker, Inc., priority 2018, dated 2024).

Tests used:
Format in all cases: cell-based, human
Dermal fibroblasts = assay: BioMAP Diversity PLUS HDF3CGF system (wound healing and matrix/tissue remodeling); details: HDF3CGF system
Experimental: (§1) This study examined activities of small molecules discovered in dolphin serum that had protective profiles against diseases of aging which can impact quality of life and longevity. These molecules were tested across 12 human primary cell-based systems as part of DiscoverX's BioMAP Diversity Plus program. These systems are designed to model complex human tissue and disease biology of the vasculature, skin, lung, and inflammatory tissues. Quantitative measurements of biomarker activities across this broad panel, along with comparative analysis of biological activities of known bioactive agents were used to predict and compare the efficacy and function of the four compounds. Compounds were tested at four concentrations (740 nm and 2.2, 6.7 and 20 μM).
(§2) BioMAP panels consist of human primary cell-based systems designed to model different aspects of the human body in an in vitro format. The 12 systems in the Diversity PLUS panel allow test agent characterization in an unbiased way across a broad set of systems modeling various human disease states. BioMAP systems are constructed with one or more primary cell types from healthy human donors, with stimuli (such as cytokines or growth factors) added to capture relevant signaling networks that naturally occur in human tissue or pathological conditions. Vascular biology is modeled in both a Th1 (3C system) and a Th2 (4H system) inflammatory environment, as well as in a Th1 inflammatory state specific to arterial smooth muscle cells (CASM3C system). Additional systems recapitulate aspects of the systemic immune response including monocyte-driven Th1 inflammation (LPS system) or T cell stimulation (SAg system), chronic Th1 inflammation driven by macrophage activation (lMphg system) and the T cell-dependent activation of B cells that occurs in germinal centers (BT system). The BE3C system (Th1) and the BF4T system (Th2) represent airway inflammation of the lung, while the MyoF system models myofibroblast-lung tissue remodeling. Lastly, skin biology is addressed in the KF3CT system modeling Th1 cutaneous inflammation and the HDF3CGF system modeling wound healing.
(§3) Each test agent generates a signature BioMAP profile that is created from the changes in protein biomarker readouts within individual system environments. Biomarker readouts (7-17 per system) are selected for therapeutic and biological relevance, are predictive for disease outcomes or specific drug effects and are validated using agents with known mechanism of action (MoA). Each readout is measured quantitatively by immune-based methods that detect protein (e.g., ELISA) or functional assays that measure proliferation and viability. BioMAP readouts are diverse and include cell surface receptors, cytokines, chemokines, matrix molecules and enzymes.
(§4) The Diversity PLUS panel allows test agent characterization in an unbiased way across a broad set of systems modeling various human disease states. These systems are designed to model complex human tissue and disease biology of the vasculature, skin, lung, and inflammatory tissues.
(§5) BioMAP systems are constructed with one or more primary cell types from healthy human donors, with stimuli (such as cytokines or growth factors) added to capture relevant signaling networks that naturally occur in human tissue or pathological conditions. Vascular biology is modeled in both a Th1 (3C system) and a Th2 (4H system) inflammatory environment, as well as in a Th1 inflammatory state specific to arterial smooth muscle cells (CASM3C system). Additional systems recapitulate aspects of the systemic immune response including monocyte-driven Th1 inflammation (LPS system) or T cell stimulation (SAg system), chronic Th1 inflammation driven by macrophage activation (lMphg system) and the T cell-dependent activation of B cells that occurs in germinal centers (BT system).

[1] = tested on: Peripheral blood mononuclear cells, B cells; assay: BioMAP Diversity PLUS BT system (T cell dependent B cell activation); details: BT system
Experimental: as §1, §2, §3, §4, §5

[2] = tested on: Bronchial epithelial cells, dermal fibroblasts; assay: BioMAP Diversity PLUS BF4T system (Th2 type lung inflammation)
Experimental: as §1, §2
as §3, with “enzymes. In total, the Diversity PLUS panel contains 148 biomarker readouts that capture biological changes that occur within the physiological context of the particular BioMAP system. Specific BioMAP activities have been correlated to in vivo biology, and multiparameter BioMAP profiles have been used to distinguish compounds based on MoA and target selectivity across diverse physiological systems.” for “enzymes.”
(§6) The Diversity PLUS panel allows test agent characterization in an unbiased way across a broad set of systems modeling various human disease states. These systems are designed to model complex human tissue and disease biology of the vasculature, skin, lung, and inflammatory tissues. Quantitative measurements of 148 biomarker activities across this broad panel, along with comparative analysis of biological activities from known bioactive agents, were used to predict and compare the efficacy and function of each selected compound at four concentrations (740 nm and 2.2, 6.7 and 20 μM). […]

[3] = tested on: Bronchial epithelial cells; assay: BioMAP Diversity PLUS BE3C system (Th1 type lung inflammation)
Experimental: as §1, §2
as §3, with “enzymes. In total, the Diversity PLUS panel contains 148 biomarker readouts that capture biological changes that occur within the physiological context of the particular BioMAP system. Specific BioMAP activities have been correlated to in vivo biology, and multiparameter BioMAP profiles have been used to distinguish compounds based on MoA and target selectivity across diverse physiological systems.” for “enzymes.”
as §6

[4] = tested on: Macrophages, venular endothelial cells; assay: BioMAP Diversity PLUS lMphg system (Th1 type chronic inflammation, macrophage activation); details: /Mphg system
Experimental: as §1, §2
as §3, with “enzymes. In total, the Diversity PLUS panel contains 148 biomarker readouts that capture biological changes that occur within the physiological context of the particular BioMAP system. Specific BioMAP activities have been correlated to in vivo biology, and multiparameter BioMAP profiles have been used to distinguish compounds based on MoA and target selectivity across diverse physiological systems.” for “enzymes.”
as §6

Lung fibroblasts = assay: BioMAP Diversity PLUS MyoF system (myofibroblast differentiation and tissue remodeling)
Experimental: as §1, §2
as §3, with “enzymes. In total, the Diversity PLUS panel contains 148 biomarker readouts that capture biological changes that occur within the physiological context of the particular BioMAP system. Specific BioMAP activities have been correlated to in vivo biology, and multiparameter BioMAP profiles have been used to distinguish compounds based on MoA and target selectivity across diverse physiological systems.” for “enzymes.”
as §6

[5] = tested on: Coronary artery smooth muscle cells; assay: BioMAP Diversity PLUS CASM3C system (Th1 type vascular inflammation); details: for Significant log10 reduction compared to nontreated controls: Serum amyloid A: CASM3C system
Experimental: as §1, §2, §3, §4, §5

In the case of `CCCCC/C=C\C/C=C\C/C=C\C/C=C\CCCC(=O)O[C@H](COC(=O)CCCCCCCCCCCCCCC)COP(=O)([O-])OCC[N+](C)(C)C` [1-palmitoyl-2-arachidonoyl-GPC], the “Significant log10 reduction compared to nontreated controls: Plasminogen activation inhibitor 1 (PAI-1)” value (Dermal fibroblasts; 20.0 μM) is reported as −0.11 log10, the “Significant log10 reduction compared to nontreated controls: Secreted interleukin 17F (IL-17F)” value ([1]; 2.2 μM) is reported as −0.12 log10 and the “Significant log10 reduction compared to nontreated controls: Secreted interleukin 2 (IL-2)” value ([1]; 20.0 μM) is reported as −0.27 log10. The “Significant log10 reduction compared to nontreated controls: Secreted interleukin 17F (IL-17F)” value ([1]; 20.0 μM) was −0.24 log10, the “Significant log10 reduction compared to nontreated controls: Secreted tumor necrosis factor alpha (TNFα)” value ([1]; 20.0 μM) was −0.16 log10 and the “Significant log10 reduction compared to nontreated controls: Eotaxin 3 (CCL26)” value (“Significant log10 reduction … (CCL26)” below) ([2]; 2.2 μM) was −0.11 log10. For the same molecule, the “Significant log10 reduction … (CCL26)” value ([2]; 6.7 μM) was −0.24 log10, the “Significant log10 reduction compared to nontreated controls: Plasminogen activation inhibitor 1 (PAI-1)” value ([2]; 6.7 μM) was −0.07 log10 and the “Significant log10 reduction … (CCL26)” value ([2]; 20.0 μM) was −0.58 log10. For the same molecule, the “Significant log10 reduction compared to nontreated controls: Plasminogen activation inhibitor 1 (PAI-1)” value ([2]; 20.0 μM) was −0.19 log10, the “Significant log10 reduction compared to nontreated controls: Keratin 8/18” value ([3]; 6.7 μM) was −0.08 log10 and the “Significant log10 reduction compared to nontreated controls: Interleukin 8 (IL-8)/CXCL8” value ([3]; 20.0 μM) was −0.12 log10. For the same molecule, the “Significant log10 reduction compared to nontreated controls: Matrix metalloproteinase 9 (MMP-9)” value ([3]; 20.0 μM) was −0.11 log10, the “Significant log10 reduction compared to nontreated controls: Plasminogen activation inhibitor 1 (PAI-1)” value ([3]; 20.0 μM) was −0.12 log10 and the “Significant log10 reduction compared to nontreated controls: Monocyte chemoattractant protein 1 (MCP-1)” value (“Significant log10 reduction … (MCP-1)” for short) ([4]; 2.2 μM) was −0.12 log10. The “Significant log10 reduction … (MCP-1)” value ([4]; 6.7 μM) was −0.13 log10, the “Significant log10 reduction compared to nontreated controls: Secreted interleukin 10 (IL-10)” value ([4]; 6.7 μM) was −0.18 log10 and the “Significant log10 reduction compared to nontreated controls: CD69” value ([4]; 20.0 μM) was −0.11 log10. For the same molecule, the “Significant log10 reduction … (MCP-1)” value ([4]; 20.0 μM) was −0.18 log10, the “Significant log10 reduction compared to nontreated controls: Alpha smooth muscle actin (αSMA)” value (“Significant log10 reduction … (αSMA)” below) (Lung fibroblasts; 0.7 μM) was −0.07 log10 and the “Significant log10 reduction … (αSMA)” value (Lung fibroblasts; 2.2 μM) was −0.09 log10. For the same molecule, the “Significant log10 reduction … (αSMA)” value (Lung fibroblasts; 6.7 μM) was −0.10 log10 and the “Significant log10 reduction … (αSMA)” value (Lung fibroblasts; 20.0 μM) was −0.18 log10.
With `CCCCCCC=CCCCCCCCCC(=O)O` [10-heptadecanoate] the “Significant log10 reduction compared to nontreated controls: Macrophage colony-stimulating factor (M-CSF)” value (Dermal fibroblasts; 6.7 μM) was −0.1 log10, the “Significant log10 reduction compared to nontreated controls: Vascular cell adhesion molecule 1 (VCAM-1)” value (Dermal fibroblasts; 6.7 μM) was −0.17 log10 and the “Significant log10 reduction … (CCL26)” value ([2]; 2.2 μM) was −0.10 log10. The “Significant log10 reduction … (CCL26)” value ([2]; 6.7 μM) was −0.13 log10, the “Significant log10 reduction … (CCL26)” value ([2]; 20.0 μM) was −0.31 log10 and the “Significant log10 reduction compared to nontreated controls: Serum amyloid A” value ([5]; 2.2 μM) was −0.13 log10.
In the case of `NC(=O)CC[C@H](NC(=O)CC[C@H](N)C(=O)O)C(=O)O` [Gamma-glutamylglutamine], the “Significant log10 reduction compared to nontreated controls: Collagen III” value (Dermal fibroblasts; 20.0 μM) is reported as −0.10 log10, the “Significant log10 reduction compared to nontreated controls: Secreted interleukin 6 (IL-6)” value ([1]; 20.0 μM) is reported as −0.13 log10 and the “Significant log10 reduction … (MCP-1)” value ([4]; 0.7 μM) is reported as −0.18 log10. For the same molecule, the “Significant log10 reduction … (MCP-1)” value ([4]; 2.2 μM) was −0.10 log10, the “Significant log10 reduction compared to nontreated controls: Interleukin 1 alpha (IL-1α)” value ([4]; 20.0 μM) was −0.16 log10 and the “Significant log10 reduction compared to nontreated controls: Vascular cell adhesion molecule 1 (VCAM-1)” value ([5]; CASM3C system (as aligned in the table), 20.0 μM) was −0.15 log10. For the same molecule, the “Significant log10 reduction compared to nontreated controls: Serum amyloid A” value ([5]; 6.7 μM) was −0.11 log10.
